From US20080234368A9, “Therapeutic compositions and methods of use” (Trustees of Dartmouth College, priority 1998, published 2008) come the findings set out here.

Assay [1] concerns AsPc-1 pancreatic carcinoma cells. Kind of assay: Inhibition of cell proliferation (3H-thymidine incorporation). It counts as cell-based, human. Particulars: AsPc-1 (Smad4/DPC4 mutation); 3 or 4 days, 3H-thymidine 2 h. As to the method:
(§1) All cells were obtained from ATCC, except as noted. They were grown under standard conditions in either DMEM, DMEM/F 12, or RPMI 1640 media plus 5-10% FBS. CDDO, over the dose range 10^−6 to 10^−10 M, was added to cultures at the time of seeding. Three or 4 days later, cells were treated with ^3H-thymidine for 2 h (12 h in the case of leukemia cells), and then incorporation was measured. “ER” means estrogen receptor.
(§2) ^aThese cells all have […] mutations (Schutte et al. 1996).
(In general: Incorporation of labelled thymidine or its analogues reports DNA synthesis.)

Assay [2] deals with CAPAN-1 pancreatic carcinoma cells. Described as above. The class given is cell-based, human. Particulars: CAPAN-1 (Smad4/DPC4 mutation); 3 or 4 days, 3H-thymidine 2 h. As to the method: as §1, §2
In assay [3] the test system is MDA-MB-468 ER negative breast carcinoma cells. The assay is described as above. It counts as cell-based, human. As to conditions: MDA-MB-468 (Smad4/DPC4 mutation); 3 or 4 days, 3H-thymidine 2 h. As to the method: as §1, §2
Assay [4] has as its system SW626 ovarian carcinoma cells. Described as above. The class given is cell-based, human. As to conditions: SW626 (Smad4/DPC4 mutation); 3 or 4 days, 3H-thymidine 2 h. As to the method:
as §1, §2

Assay [5] deals with MCF-7 breast carcinoma cells. Kind of assay: Suppression of thymidine incorporation, dose-response (FIG. 13). Particulars: MCF-7 with 17-β-estradiol, 72 h; oleanolic acid statement at concentrations of 1 μM or less. The class given is cell-based, human. As for the experimental part:
Inhibitors of cell proliferation are known to be useful chemopreventive and chemotherapeutic agents. CDDO was tested against a wide variety of cells derived from highly aggressive leukemias and carcinomas, as well as from non-neoplastic tissues. NRP-152 cells were grown as described in Danielpour et al., 1994. MCF-7 cells were grown in phenol red-free RPMI 1640/10% charcoal-stripped FBS with added 17-β-estradiol (10 μM). Triterpenoids were added at the time of plating, and 72 h later ^3H-thymidine (1 μCi/well) was added for the final 2 h of incubation. Incorporation of thymidine was measured after cells were precipitated with TCA (10%), washed, and solubilized. The symbols used in FIG. 13 are CDDO, ▪; TP-82, ◯; and oleanolic acid; ●.

Assay [6] concerns LCDB acute myelogenous leukemia cell line. Kind of assay: Monocytic differentiation, α-naphthyl acetate esterase staining. It counts as cell-based, human. As for the experimental part: CDDO induces monocytic differentiation in the poorly differentiated LCDB acute myelogenous leukemia cell line, derived from a chemotherapy-resistant patient at the NCI Pediatric Oncology Branch. FIG. 11 illustrates LCDB cells seeded in RPMI 1640/2% FBS, either alone (11A), with 2.5 ng/ml TGF-β1 (11B), with 10^−8 M CDDO (11C), or with both TGF-β1 and CDDO (11D). After 48 h, cytospin slide preparations were made and stained for α-naphthyl acetate esterase activity (kit from Sigma). PC12 cells were cultured for 5 days in gridded dishes in DMEM/10% FBS and 5% horse serum (Smith et al., 1997), either alone (11E), with 100 ng/ml 7S NGF (11F), with 10^−6 M CDDO (11G), or with both NGF and CDDO (11H). […] Methods for quantitative image analysis of size of cells and neurites have been described (De 1a Torre et al., 1997). Control cells in FIG. 11E are approximately 10 μm in diameter. 3T3-L1 cells were grown to confluency in DMEM/5% calf serum, and then treated once with CDDO in DMEM/10% FBS (FIG. 12A) or with CDDO and/or LG100268 in DMEM/10% FBS (FIG. 12B). Every two days thereafter, medium was changed to DMEM/10% FBS, without added CDD0 or LG100268. Cells were harvested on day 8 (FIG. 12A) or day 6 (FIG. 12B), and GPDH was measured in lysates, using a standard assay for consumption of NADH at 340 nm (Wise and Green, 1979).

The subject of assay [7] is THP-1 monocytic leukemia line. As to the kind of experiment: Differentiation of leukemia cells (data not shown). As to conditions: by itself or in combination with TGF-β1. The class given is cell-based, human.
Assay [8] has as its system NB4 promyelocytic leukemia line. As to the kind of experiment: Differentiation of leukemia cells (data not shown). The class given is cell-based, human. Particulars: by itself or in combination with TGF-β1.
The test system of assay [9] is PGE2 production in primary macrophages. As to the kind of experiment: Suppression of PGE2 production in primary macrophages (FIG. 14C). As to conditions: levels as low as 10^−9 M; IFN-γ 5 ng/ml and LPS 5 ng/ml, 48 h. It counts as cell-based, mouse. As to the method:
FIG. 14(A) illustrates Western blots; primary mouse macrophages; IFN-γ, 10 ng/ml; LPS, 2 ng/ml were added to cultures together with triterpenoids or dexamethasone (concentrations shown as […]); cells were harvested at 12 h. FIG. 14(B) illustrates Northern blots, RAW 264.7 macrophage-like cell line. IFN-γ, 10 ng/ml; LPS, 1 ng/ml; TNF-α, 10 ng/ml, were added to cultures together with CDDO or dexamethasone. RNA prepared after 12 h; GAPDH used as a loading control. FIG. 14(C) illustrates suppression of production of NO and PGEF in primary macrophages. For NO studies, cells were treated with IFN-γ, 10 ng/ml, together with CDDO (M), dexamethasone (O), TP-82 (□), or oleanolic acid (A). After 48 h, supernatants were analyzed for NO by the Griess reaction. For PGEF studies, cells were treated with IFN-γ, 5 ng/ml, and LPS, 5 ng/ml, together with the same set of inhibitors. After 48 h, PGE was measured in supernatants by immunoassay. Control values (no inhibition) for NO and PGE2 were 4.7 nmol/[…] and 2.2 ng/ml/2×10^5 cells, respectively. FIGS. (14D) and (14E) illustrate (human colon myofibroblasts) ^18Co cells grown in MEM/10% FBS; other methods are the same as reported above for macrophages. FIG. 14(D) illustrates Northern blots showing dose-response for suppression of COX-2 mRNA after induction with IL-1β (30 pg/ml). CDDO was added together with IL-1. […]

The subject of a further assay is COX-2. Kind of assay: TPA-induced COX-2 in 18Co cells. The class given is cell-based, human. The source says:
These cells were selected because of the importance of stromal cell COX-2 in colon carcinogenesis (Oshima et al., 1996). […] Although CDDO effectively blocks the induction of COX-2 by agents such as IFN-γ, LPS, TNF-α, and IL-1, CDDO is ineffective when TPA is used as the inducer of COX-2. This has been seen in 18Co cells, as well as in the human mammary epithelial cell line, 184B5/HER (Zhai et al., 1993).

As usually defined, the IC50 is the concentration needed to halve the response being measured. Low readings indicate greater potency in that assay, high ones weaker potency in that assay. Consider `CC1(C)CC[C@]2(C(=O)O)CC[C@]3(C)[C@H](C(=O)C=C4[C@@]5(C)C=C(C#N)C(=O)C(C)(C)[C@@H]5CC[C@]43C)[C@@H]2C1` [Compound 6, 2-cyano-3,12-dioxoolean-1,9-dien-28-oic acid], for which the IC50 in assay [1] came to 100 nM; in assay [2], 300 nM; in [3], 200 nM; in [4] it was 300 nM. In [5], the suppressing thymidine incorporation result is “highly active in the nanomolar range”. Also, the “α-naphthyl esterase activity, combination effect” value in assay [6] (10^−8 M CDDO with 2.5 ng/ml TGF-β1) is “additive effect”. Also, the “induction of α-naphthyl esterase activity (monocytic differentiation)” value in assay [6] (10^−8 M CDDO, within 48 h) is “induced the activity of this enzyme”. In addition, the differentiative effects entry in assay [7] and in [8] was “differentiative effects” throughout. Besides, the “inhibition of cumulative PGE2 production” value in assay [9] is reported as “Significant inhibition”. Besides, in the assay on COX-2, the “blocking of COX-2 induction with TPA as inducer” value is “ineffective”.
